What all share (assay): MIC by agar dilution method
What all share (format): cell-based
On the technique in general: In agar dilution the substance is mixed into plates at graded concentrations.

The test system of one assay is S. aureus 1840. As to conditions: Staphylococcus aureus, 24 h, 10^8 CFU/ml, 37° C. overnight. The protocol: (§1) The minimal inhibitory concentrations [MIC (μg/ml)] of a representative compound of the invention were determined by the following method.
(§2) Method for MIC determination
(§3) The MIC values of the test compound were determined by the agar dilution method. Thus, 1.0 ml aliquots of serial aqueous dilutions of the test compound were put in petri dishes and 9.0 ml aliquots of Trypticase Soy Agar were added and mixed. Those agar plates were respectively smeared with a suspension (about 10^8 CFU/ml) of the test organism and incubated at 37° C. overnight.

The test system of another assay is S. pyogenes S-8. As to conditions: Streptococcus pyogenes, S8, 24 h, 10^8 CFU/ml, 37° C. overnight. The protocol:
as §1, §2, §3

A further assay concerns E. coli NIHJ O-111. Particulars: Escherichia coli, NIHJO111, 24 h, 10^8 CFU/ml, 37° C. overnight. Here is the method:
as §1, §2, §3

Another assay concerns K. oxytoca TN 1711. Particulars: Klebsiella oxytoca, TN1711, 24 h, 10^8 CFU/ml, 37° C. overnight. Here is the method: as §1, §2, §3
The test system of the next assay is S. aureus 308A-1. Particulars: Staphylococcus aureus, 308A1, 24 h, 10^8 CFU/ml, 37° C. overnight. The protocol:
as §1, §2, §3

In another assay the test system is C. freundii TN 474. Particulars: Citrobacter freundii, TN474, 24 h, 10^8 CFU/ml, 37° C. overnight. Here is the method: as §1, §2, §3
For the next assay, the system named is S. mitis America. Particulars: Streptococcus mitis, 24 h, 10^8 CFU/ml, 37° C. overnight. Here is the method:
as §1, §2, §3

For the next assay, the system named is S. marcescens IFO 12648. Particulars: Serratia marcescens, IFO12648, 24 h, 10^8 CFU/ml, 37° C. overnight. The protocol: as §1, §2, §3
Another assay relates to S. pyogenes E-14. Particulars: Streptococcus pyogenes, E14, 24 h, 10^8 CFU/ml, 37° C. overnight. Here is the method:
as §1, §2, §3

Another assay concerns E. coli NIHJ T-7. Particulars: Escherichia coli, NIHJT7, 24 h, 10^8 CFU/ml, 37° C. overnight. Here is the method: as §1, §2, §3
A further assay has as its system P. mirabilis IFO 3849. As to conditions: Proteus mirabilis, IFO3849, 24 h, 10^8 CFU/ml, 37° C. overnight. Here is the method: as §1, §2, §3
Another assay has as its system C. diphtheriae Tronto. As to conditions: Corynebacterium diphtheriae, 24 h. The protocol:
as §1, §2, §3

The test system of the next assay is K. pneumoniae DT. Particulars: Klebsiella pneumoniae, 24 h, 10^8 CFU/ml, 37° C. overnight. Here is the method: as §1, §2, §3
Another assay relates to M. morganii IFO 3168. As to conditions: Morganella morganii, IFO3168, 24 h, 10^8 CFU/ml, 37° C. overnight. The protocol:
as §1, §2, §3

The subject of a further assay is E. cloacae TN 583. As to conditions: Enterobacter cloacae, TN583, 24 h, 10^8 CFU/ml, 37° C. overnight. Here is the method: as §1, §2, §3
For a further assay, the system named is S. aureus FDA 209P. As to conditions: Staphylococcus aureus, FDA209P, 24 h, 10^8 CFU/ml, 37° C. overnight. Here is the method:
as §1, §2, §3

In another assay the test system is P. vulgaris IFO 3988. Particulars: Proteus vulgaris, IFO3988, 24 h, 10^8 CFU/ml, 37° C. overnight. Here is the method:
as §1, §2, §3

For a further assay, the system named is S. pneumoniae Type I. Particulars: Streptococcus pneumoniae, 24 h, 10^8 CFU/ml, 37° C. overnight. Here is the method: as §1, §2, §3
The test system of a further assay is E. cloacae IFO 12937. Particulars: Enterobacter cloacae, IFO12937, 24 h, 10^8 CFU/ml, 37° C. overnight. The protocol:
as §1, §2, §3

A further assay has as its system E. coli NIHJ JC-2. Particulars: Escherichia coli, NIHJJC2, 24 h, 10^8 CFU/ml, 37° C. overnight. Here is the method:
as §1, §2, §3

The subject of the next assay is C. freundii IFO 12681. As to conditions: Citrobacter freundii, IFO12681, 24 h, 10^8 CFU/ml, 37° C. overnight. The protocol:
as §1, §2, §3

A value given as a limit tells only on which side of the number the result lay.

`C[C@@H](O)[C@H]1C(=O)N2C(C(=O)[O-])=C3SCCCC3[C@H]12.[Na+]` (mixture of isomers) [Example 3, Sodium (5S,6S,7RS)-5-[(R)-1-hydroxyethyl]-4-oxo-3-aza-11-thiatricyclo[5.4.0.0^3,6]undec-1-ene-2-carboxylate]: the minimal inhibitory concentration (MIC) (commonly the smallest concentration in the dilution series that meets the test's criterion for growth inhibition) against S. aureus 1840 was 1.56 µg/mL; against S. pyogenes S-8, 0.2 µg/mL; in the assay with E. coli NIHJ O-111, 0.2 µg/mL; in the assay with K. oxytoca TN 1711, 0.39 µg/mL; in the assay with S. aureus 308A-1, 0.78 µg/mL; against C. freundii TN 474 it was 1.56 µg/mL. The MIC is 0.78 µg/mL with S. mitis America; 1.56 µg/mL with S. marcescens IFO 12648; 0.78 µg/mL with S. pyogenes E-14; 0.2 µg/mL against E. coli NIHJ T-7; 1.56 µg/mL with P. mirabilis IFO 3849; under 0.1 µg/mL against C. diphtheriae Tronto. The MIC in the assay with K. pneumoniae DT worked out at 0.39 µg/mL; against M. morganii IFO 3168, 3.13 µg/mL; against E. cloacae TN 583 it was 0.78 µg/mL; in the assay on S. aureus FDA 209P it was 0.78 µg/mL; against P. vulgaris IFO 3988, 3.13 µg/mL; in the assay on S. pneumoniae Type I, 0.39 µg/mL. In addition, the MIC against E. cloacae IFO 12937 turned out to be 0.78 µg/mL; with E. coli NIHJ JC-2, 0.2 µg/mL; with C. freundii IFO 12681 it was 0.39 µg/mL.

Source of the values: patent US5393751A, “Tricyclic carbapenem compounds” (Takeda Chemical Industries, Ltd., priority 1989, dated 1995).
